What was measured:
MCL-1 = MCL-1 (Homo sapiens, UniProt Q07820); conditions: background statement; cited from earlier work
BCL-2-addicted H23 cells = assay: Treatment of engineered H23 cell lines with BCL-2, BCL-XL and MCL-1 inhibitors to confirm selective addiction; assay type: cell-based, human; conditions: BCL-2-addicted H23 cells (BCL-2 overexpression, MCL-1 knockdown); FIG. 3B
parental H23 cells = assay: Treatment of parental (MCL-1-addicted) H23 cells with BCL-2, BCL-XL and MCL-1 inhibitors; assay type: cell-based, human; conditions: parental H23 cells (MCL-1-addicted); FIG. 3B
A549 cells = assay: ABT-737-induced apoptosis after knockdown of MCL-1; assay type: cell-based, human; conditions: A549 cells with knockdown of MCL-1
[1] = tested on: BCL-XL-addicted H23 cells; assay: Treatment of engineered H23 cell lines with BCL-2, BCL-XL and MCL-1 inhibitors to confirm selective addiction; conditions: BCL-XL-addicted H23 cells (BCL-XL overexpression, MCL-1 knockdown); FIG. 3B
From the text: Isogenic H23 cancer cell lines with selective addiction to MCL-1, BCL-2, or BCL-XL.

[2] = tested on: MCL-1-IRES-BIM or MCL-1-IRES-PUMA MEFs; assay: Apoptosis induction by BH3-only proteins in engineered MEFs; assay type: cell-based, mouse; conditions: MCL-1-addicted MEFs; FIGS. 2A and 2B
From the text: (§1) Cellular dependency on BCL-2, BCL-XL or MCL-1 for survival is governed by the relative abundance among these proteins (FIG. 1). Intricate interplays among the BCL-2 subfamilies govern cellular survival/death, and also provide a molecular blueprint concerning the clinical application of BH3-mimetics in killing cancer cells. Using MEFs that express different combinations of anti-apoptotic BCL-2 members and activator BH3s, a system has been built that can distinguish between the inhibition of BCL-2/BCL-XL and MCL-1 by BAD/BAD mimetics and […]/NOXA mimetics, respectively (FIGS. 2A and 2B).
(§2) Importantly, this system mimics the “primed” cell death state of many cancers with abundant pre-assembled complexes of BCL-XL/BIM, BCL-XL/PUMA, BCL-2/BIM, BCL-2/PUMA, MCL-1/BIM or MCL-1/PUMA. […] In addition, compounds that downregulate MCL-1 mRNA and/or protein or induce endogenous NOXA, BIM, or PUMA will trigger similar death patterns.

wild-type cells = assay: Sensitivity of wild-type cells to BH3-only proteins; assay type: cell-based, mouse; conditions: wild-type cells lacking pre-assembled cell death priming complexes; FIG. 2B
From the text: as §2

[3] = tested on: BCL-XL-IRES-BIM, BCL-XL-IRES-PUMA, BCL-2-IRES-BIM or BCL-2-IRES-PUMA MEFs; assay: Apoptosis induction by BH3-only proteins in engineered MEFs; assay type: cell-based, mouse; conditions: BCL-XL- or BCL-2-addicted MEFs; FIGS. 2A and 2B
From the text: as §1, §2

Sequence of MCL-1 (Q07820 whole entry): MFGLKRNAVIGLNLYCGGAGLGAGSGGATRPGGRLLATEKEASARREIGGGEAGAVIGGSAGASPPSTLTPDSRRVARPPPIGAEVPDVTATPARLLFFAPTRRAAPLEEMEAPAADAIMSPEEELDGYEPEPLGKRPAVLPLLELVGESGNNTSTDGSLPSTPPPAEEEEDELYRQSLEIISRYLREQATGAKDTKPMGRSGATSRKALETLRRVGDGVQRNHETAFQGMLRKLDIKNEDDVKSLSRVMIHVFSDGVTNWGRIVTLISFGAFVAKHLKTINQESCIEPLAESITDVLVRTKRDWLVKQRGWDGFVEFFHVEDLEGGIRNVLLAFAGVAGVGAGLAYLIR

## CC1(C)CCC(c2ccc(Cl)cc2)=C(CN2CCN(c3ccc(C(=O)NS(=O)(=O)c4ccc(N[C@H](CCN5CCOCC5)CSc5ccccc5)c(S(=O)(=O)C(F)(F)F)c4)cc3)CC2)C1 [ABT-263]
MCL-1
  inhibition of MCL-1: fail to inhibit

## CN(C)CC[C@H](CSc1ccccc1)Nc1ccc(S(=O)(=O)NC(=O)c2ccc(N3CCN(Cc4ccccc4-c4ccc(Cl)cc4)CC3)cc2)cc1[N+](=O)[O-] [ABT-737, (R)-4-(4-((4′-chloro-[1,1′-biphenyl]-2-yl)methyl)piperazin-1-yl)-N-((4-((-4-(dimethylamino)-1-(phenylthio)butan-2-yl)amino)-3-nitrophenyl)sulfonyl)benzamide]
BCL-2-addicted H23 cells
  sensitivity of cells to inhibitor: sensitive
Parental H23 cells
  sensitivity of cells to inhibitor: only sensitive to inhibitors of MCL-1
A549 cells
  susceptibility to ABT-737-induced apoptosis: susceptible
[1]
  sensitivity of cells to inhibitor: sensitive

## NOXA: pro-apoptotic BH3-only member of the BCL-2 protein family that specifically inactivates MCL-1 (MPGKKARKNAQPSPARAPAELEVECATQLRRFGDKLNFRQKLLNLISKLFCSGT; UniProt Q13794 1-54, looked up)
[2]
  induction of apoptosis: selectively induces apoptosis
wild-type cells
  sensitivity of wild-type cells: less sensitive

B1: BAD: pro-apoptotic BH3-only BCL-2 family protein that binds to BCL-XL and BCL-2 but not MCL-1 (protein, UniProt Q92934 1-168, looked up)
Bcl2-associated agonist of …: MFQIPEFEPSEQEDSSSAERGLGPSPAGDGPSGSGKHHRQAPGLLWDASHQQEQPTSSSHHGGAGAVEIRSRHSSYPAGTEDDEGMGEEPSPFRGRSRSAPPNLWAAQRYGRELRRMSDEFVDSFKKGLPRPKSAGTATQMRQSSSWTRVFQSWWDRNLGRGSSAPSQ
[3]
  induction of apoptosis: induces apoptosis
wild-type cells
  sensitivity of wild-type cells: less sensitive
